Measured values from patent US6559167B1, “Prodrugs of proton pump inhibitors” (Regents of the University of California, priority 1998, dated 2003).
Several values for one entry are separate records, joined by “and”; a condition that tells them apart may be missing. Equal values may be shown once.

Assays:
gastric H,K-ATPase = biological target: T1, gastric H,K-ATPase (Sus scrofa, UniProt P19156); test: Inhibition of ATPase activity using isolated hog gastric vesicles; format: biochemical; conditions: for inhibition of enzyme activity after 80 minutes: after 80 minutes at pH 7.4, 37° C.; for inhibition of gastric H,K-ATPase activity initially (before hydrolysis): 10, 20, 50, and 100 μM, pH 7.4, 37° C.
T1 construct: from tissue; host or cells: hog gastric vesicles (stomach mucosa)
Text: By way of concrete examples, the following tests and results are described. […] This is consistent with the knowledge that the compounds obtained by hydrolysis e. g. LANSOPRAZOLE, OMEPRAZOLE, PANTOPRAZOLE and RABEPRAZOLE are well known H,K-ATPase inhibitors. […] Another good example is 2-(2-carbamoylmethoxy-4-{2-[4-(3-methoxypropoxy)-3-methyl pyridin-2-yl methylsulfinyl]benzimidazole-1-sulfonyl}phenoxy)acetamide. The half life of this compound dependes on pH. […] Based on these measured characteristics the compound 2-(2-carbamoylmethoxy-4-{2-[4-(3-methoxypropoxy)-3-methyl pyridin-2-yl methylsulfinyl]benzimidazole-1-sulfonyl}phenoxy)acetamide is expected to be well absorbed, and slowly release the parent RABEPRAZOLE in the blood, resulting in long-lasting in vivo activity. This compound can also be administered intravenously in an aqueous solution at pH 7.4 which solution may include 2-hydroxypropyl-β-cyclodextrin.
Inhibition of ATPase activity was measured using isolated hog gastric vesicles. The gastric H,K-ATPase (10 μg) was incubated at 37° C. in a solution (1 ml) composed of 0.25M sucrose, 20 mM Pipes/Tris, pH 7.4, 0.15M KCl, 2 mM MgCl2, valinomycin 2 μg/ml, and various concentration of compounds of the invention. At timed intervals, ATP was added (up to 2 mM) and incubated for 15 minutes and amount of released phosphate ion was measured. As a control experiment the prior art drug without a labile group on the benzimidazole nitrogen (e. g. OMEPRAZOLE or LANSOPRAZOLE) was used for measuring inhibition of enzyme activity.

[1] = test system: gastric acid secretion of the conscious male rat; test: Inhibitory effect on gastric acid secretion of the conscious male rat at timed intervals after oral administration; format: in vivo; conditions: between 5.5-8.5 hours after oral administration; 10 μmole/kg; histamine and carbachol stimulated; male rat
[2] = test system: gastric acid secretion (histamine-stimulated acid output), pylorus-ligated male rats; test: Initial inhibition of gastric acid secretion after intraduodenal administration to pylorus-ligated rats; format: in vivo; conditions: 10 μmole/kg, after pylorus ligation, histamine 30 mg/kg s.c., acid output over four hours, rat
Experimental: Histamine (30 mg/kg) was subcutaneously injected to stimulate acid production. The abdomen was surgically closed immediately. Four hours later the esophagus was ligated and the stomach was removed. Acid output was measured as described above.

[3] = Relative plasma concentration of OMEPRAZOLE in male rat after oral administration; conditions: for Relative concentration of OMEPRAZOLE released in the plasma: male rat, examples 2 mg/kg, OMEPRAZOLE 4 mg/kg;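 for all read-outs here: Sprague-Dawley rats fasted one day with water available, dosed orally with prodrug compounds, OMEPRAZOLE quantified by HPLC in plasma from serial blood draws, control given OMEPRAZOLE itself orally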
Experimental: Male adult rats of the Sprague-Dawley strain were used for determining the concentration of OMEPRAZOLE in the plasma. All rats were derived of food but not of water for one day. Examples of compounds of the invention (2 mg/kg of rat weight) were orally administrated to male rats (weighing 250 g to 270 g) and blood samples (0.3 ml) were taken at timed intervals. Blood samples were centrifuged and plasma was taken out. Plasma was extracted with 0.5 ml of dichloromethane. Dichloromethane layer was evaporated by nitrogen/air blowing. The residual materials were dissolved in 0.5 ml of 40% acetonitrile in 10 mM phosphate buffer (pH 7.4). Amounts of OMEPRAZOLE were determined by HPLC analysis. As a control, OMEPRAZOLE (4 mg/kg of rat weight) was orally administrated.

[4] = Acid stability in 95% methanol containing 0.1N HCl; format: physicochemical; conditions: after 2.25 hour in 95% methanol containing 0.1N HCl
Experimental: Acid stability of the compounds was assayed in 95% methanol containing 0.1N HCl. Approximately 90% of the compound of Example 1 was still present intact (without decomposition) after 2.25 hour in this solution.

[5] = Solubility in aqueous buffer; format: physicochemical
[6] = after 5.75 hr hydrolysis at pH 7.4, 10 μM

T1 sequence (P19156 2-1034 limits assumed): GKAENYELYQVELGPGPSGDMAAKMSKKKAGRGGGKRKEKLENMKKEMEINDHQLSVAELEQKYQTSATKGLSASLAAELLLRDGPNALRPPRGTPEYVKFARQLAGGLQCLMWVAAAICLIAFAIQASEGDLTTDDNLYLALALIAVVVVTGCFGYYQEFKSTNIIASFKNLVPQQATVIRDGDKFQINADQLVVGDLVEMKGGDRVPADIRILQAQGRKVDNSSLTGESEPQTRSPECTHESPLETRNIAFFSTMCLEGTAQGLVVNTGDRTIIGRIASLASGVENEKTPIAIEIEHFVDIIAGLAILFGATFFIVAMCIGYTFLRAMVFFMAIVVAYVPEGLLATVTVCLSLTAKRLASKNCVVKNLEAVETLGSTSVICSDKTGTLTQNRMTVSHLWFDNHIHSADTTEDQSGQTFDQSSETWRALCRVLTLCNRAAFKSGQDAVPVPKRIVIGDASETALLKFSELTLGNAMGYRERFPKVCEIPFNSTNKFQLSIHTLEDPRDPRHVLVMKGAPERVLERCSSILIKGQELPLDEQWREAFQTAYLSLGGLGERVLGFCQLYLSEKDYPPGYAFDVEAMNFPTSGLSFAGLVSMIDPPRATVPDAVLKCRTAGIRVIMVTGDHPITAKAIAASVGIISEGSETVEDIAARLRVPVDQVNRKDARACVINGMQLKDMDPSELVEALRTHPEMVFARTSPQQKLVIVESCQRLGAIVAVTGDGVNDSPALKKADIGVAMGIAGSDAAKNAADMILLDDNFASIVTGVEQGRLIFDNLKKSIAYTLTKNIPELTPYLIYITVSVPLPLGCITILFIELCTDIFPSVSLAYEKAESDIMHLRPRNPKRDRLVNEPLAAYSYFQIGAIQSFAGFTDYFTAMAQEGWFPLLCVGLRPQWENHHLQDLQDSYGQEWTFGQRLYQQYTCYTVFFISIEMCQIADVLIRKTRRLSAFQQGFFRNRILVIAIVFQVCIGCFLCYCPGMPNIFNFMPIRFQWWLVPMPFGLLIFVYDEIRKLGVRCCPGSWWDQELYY
T1 sequence (P18434 whole entry partner): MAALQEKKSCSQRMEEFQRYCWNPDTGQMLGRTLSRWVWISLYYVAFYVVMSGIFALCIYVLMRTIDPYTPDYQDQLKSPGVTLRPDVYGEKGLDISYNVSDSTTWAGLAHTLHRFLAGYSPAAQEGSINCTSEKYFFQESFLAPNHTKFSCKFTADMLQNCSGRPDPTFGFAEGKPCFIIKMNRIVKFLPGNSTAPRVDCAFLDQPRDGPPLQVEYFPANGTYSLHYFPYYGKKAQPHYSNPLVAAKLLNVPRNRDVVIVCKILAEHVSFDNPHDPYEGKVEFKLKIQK

Molecule	inhibition at 10 µM (gastric H,K-ATPase; [6]) [%]	inhibition of gastric H,K-ATPase activity after 5.75 hr hydrolysis (gastric H,K-ATPase; [6])	% inhibition of gastric acid secretion [1]	inhibition of histamine-stimulated acid output [2] [%]	Relative concentration of OMEPRAZOLE released in the plasma ([3]; 20 min after oral administration) [arbitrary unit]	Relative concentration of OMEPRAZOLE released in the plasma ([3]; 40 min after oral administration) [arbitrary unit]	Relative concentration of OMEPRAZOLE released in the plasma ([3]; 60 min after oral administration) [arbitrary unit]	Relative concentration of OMEPRAZOLE released in the plasma ([3]; 80 min after oral administration) [arbitrary unit]	time until OMEPRAZOLE has completely disappeared from the plasma ([3]; administrated to male rat (control)) [h]	inhibition of enzyme activity after 80 minutes (gastric H,K-ATPase; 10 μM) [%]	inhibition of enzyme activity after 80 minutes (gastric H,K-ATPase; 50 μM) [%]	inhibition of gastric H,K-ATPase activity after 5.75 hr hydrolysis (gastric H,K-ATPase; after 5.75 hr hydrolysis at pH 7.4, 10 μM, listed as 1-benzenesulfonyl-5-methoxy-2-[(3,5-dimethyl-4-methoxy-2-pyridyl)methylsulfinyl], 10 µM) [%]	inhibition of gastric H,K-ATPase activity initially (before hydrolysis) (gastric H,K-ATPase)	inhibition of gastric H,K-ATPase activity initially (before hydrolysis) (gastric H,K-ATPase; listed as 1-benzenesulfonyl-5-methoxy-2-[(3,5-dimethyl-4-methoxy-2-pyridyl)methylsulfinyl])	compound still present intact (without decomposition) [4]	solubility in aqueous buffer (comparison) [5]
COc1ccc2[nH]c([S+]([O-])Cc3ncc(C)c(OC)c3C)nc2c1 (centres unmarked) [OMEPRAZOLE, 5-methoxy-2-[(3,5-dimethyl-4-methoxy-2-pyridyl)methylsulfinyl]-1H-benzimidazole, reference compound]	91	the same level of inhibition	19.6% and 19.6 ± 3.9%	54.6	28	4	2	1	≤ 1.5							
1-Benzenesulfonyl-5-methoxy-2-[(3,5-dimethyl-4-methoxy-2-pyridyl)methylsulfinyl]-1H-benzimidazole and 1-Benzensulfonyl-6-methoxy-2-[(3,5-dimethyl-4-methoxy-2-pyridyl)methylsulfinyl]-1H-benzimidazole [Example 1]		the same level of inhibition								10	50	91	failed to inhibit enzyme activity	did not inhibit	Approximately 90%	slightly higher solubility in aqueous buffer than the compound of Example 19
